EP3677663A1, “NON-ENZYMATIC REMOVAL OF PROTEINACEOUS SOILS” (Henkel AG & Co. KGaA, priority 2019, dated 2020)

Experiments:
[1] = tested on: Whey protein; test: Hydrolysis of unaltered Whey protein by polyoxometalates, monitored by SDS-PAGE; type: biochemical; conditions: 60°C, 1.5 mg/ml Whey protein, polyoxometalate 14 mg/ml
Method: (§1) All gels were 100x100x1 mm and the stacking gel was approximately 1 cm long from the bottom of the comb to the top of the resolving gel resulting in a resolving gel of 8 cm. 2. Table 1: Composition of the solutions to prepare 18% resolving and 5% stacking gel.
(§2) After pouring the resolving gel, a thin layer of isopropanol was carefully added on top of the gel. The resolving gel was left 1 hour to harden, and isopropanol was removed before pouring the stacking gel. A 12 well comb was placed inside the stacking gel and left to harden for an additional hour. The finished gels were kept in the fridge.
(§3) Samples were prepared by mixing a 10 µl of sample with 5 µl of 3X sample buffer (225 µl TRIS/HCI buffer (1M, pH 6.8), 630 mg glycerol, 50 mg SDS, 0.5 mg bromophenol blue and 250 µl 1 M DTI), incubating at 95 °C for 5 minutes and centrifuging the samples after they are cooled to room temperature. The wells of the stacking gel were loaded with 10 µl of sample and 5 µl of protein ladder.
(§4) An OmniPAGE electrophoretic cell was combined with an EV243 power supply (both produced by Consort) in experiments at 30 mA/gel and 100 V/gel for the 18% resolving gel (approximately 2.5 hours) and 20 mA/gel and 100 V/gel for the 12% resolving gel (approximately 1.5 hours). As anode and cathode buffer a TRIS/Tricine running buffer (0.1 M TRIS, 0.1 M Tricine and 0.1 wt/vol% SDS) was used for 18% gels and a TRIS/Glycine running buffer (0.2 M Glycine, 0.025 M TRIS and 0.1 wt/vol% SDS) for 12% gels. Before staining the gels were fixed for 1 hour in a 12 wt/vol% TCA solution. The staining was done by leaving the gels in a colloidal coomassie blue solution (700 ml H2O, 100 ml H3PO4, […], 1.2 g coomassie blue and 200 ml methanol) over night and subsequently destained with a heavy destain solution {60 ml methanol, 20 ml acetic acid and 120 ml water) and water. Finally, the gels were analyzed with a Gel Doc EZ imager and Image LabTM Software (both supplied by Bio-Rad). The kinetics of the reactions were studied by plotting the relative intensity of the intact proteins band in function of time and fitted to the exponential expression of a pseudo first-order reaction: I = I0 e^-kobst
(§5) In this equation I represents the intensity in function of time t, I0 the intensity at time 0 and kobs is the observed hydrolysis rate. The half-life (t½) of the intact protein was calculated according to t½ = (ln(2))/(kobs) [formula]
(§6) To solutions of 1.0 mg/ml solution of unaltered Ovalbumin or the Lactose/Ovalbumin Maillard reaction samples of example 4 or of 1.5 mg/ml solution of unaltered Whey protein or the Lactose/Whey protein Maillard reaction samples of example 4 were added the polyoxometalates of examples 1 to 3 at a concentration of 14 mg/ml. The rate of hydrolysis for the proteins at 60°C at pH 4 (sodium citrate buffer, 10 mM) and 9 (glycine/NaOH buffer, 10 mM) was studied over time. Results for the hydrolysis rate and the half-life of the unaltered protein samples are given in tables 5 and 6 and results for the half-life of altered proteinaceous samples of example 4 (treated at pH 9) are given in table 7. Table 5: Hydrolysis of unaltered Whey protein

[2] = target: T1, Ovalbumin (Gallus gallus, UniProt P01012); test: Hydrolysis of unaltered Ovalbumin by polyoxometalates, monitored by SDS-PAGE; type: biochemical, chicken; conditions: 60°C, 1.0 mg/ml Ovalbumin, polyoxometalate 14 mg/ml
T1 construct: Ovalbumin from chicken egg was purchased from Acros (Mw 44.5 kDa); purchased Acros; host or cells: chicken egg
T1 sequence (P01012 1-386): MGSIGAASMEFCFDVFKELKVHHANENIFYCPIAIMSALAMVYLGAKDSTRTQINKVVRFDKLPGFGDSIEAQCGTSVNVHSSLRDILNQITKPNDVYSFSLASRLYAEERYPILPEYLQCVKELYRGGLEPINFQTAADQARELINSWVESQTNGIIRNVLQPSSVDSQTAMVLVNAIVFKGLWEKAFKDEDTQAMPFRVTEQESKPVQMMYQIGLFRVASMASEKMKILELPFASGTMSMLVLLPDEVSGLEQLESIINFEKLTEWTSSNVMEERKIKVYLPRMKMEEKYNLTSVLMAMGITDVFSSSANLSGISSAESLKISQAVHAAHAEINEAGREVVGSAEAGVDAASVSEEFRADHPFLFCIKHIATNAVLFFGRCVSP
Method: as §1, §2, §3, §4, §5, §6

[3] = pH 4 (sodium citrate buffer, 10 mM)
[4] = pH 9 (glycine/NaOH buffer, 10 mM)

Rate x 10^-3 [min^-1] [2, 3]	Rate x 10^-3 [min^-1] [2, 4]	Substance	Rate x 10^-3 [min^-1] [1, 3]	Rate x 10^-3 [min^-1] [1, 4]
6±2 x 10^-3 min^-1	7±1 x 10^-3 min^-1	K10[Ce(PW11O39)2] [CeKe2]	9±5 x 10^-3 min^-1	5.30±0.04 x 10^-3 min^-1
6±3 x 10^-3 min^-1	7±3 x 10^-3 min^-1	((C2H5)2NH2)6[Zr2(PW11O39)2] [Zr2Ke2]	3.8±0.8 x 10^-3 min^-1	1±1 x 10^-3 min^-1
4.3±0.4 x 10^-3 min^-1	5±2 x 10^-3 min^-1	((C2H5)2NH2)10[Zr(PW11O39)2] [ZrKe2]	1.8±0.7 x 10^-3 min^-1	6±1 x 10^-3 min^-1
